Legend:
GBV-B = assay: Inhibition of GBV-B replication in tamarin hepatocytes in culture; type: cell-based
Experimental: Hepatocytes isolated from uninfected tamarins were maintained in culture in defined medium for several days. The cell culture model was as described by Beames et al. 2000. Three days after plating, the cells were infected with GBV-B-containing plasma. After viral adsorption, the virus was removed and the cells were incubated in the presence and absence of candidate test compounds at a concentration of 10 μM. The cells were harvested 7 days post infection. The levels of GBV-B RNA were quantitated from total cellular RNA by a real-time PCR assay using a primer-probe combination that recognized a portion of the GBV-B capsid gene (Beames et al. 2000).

[1] = target: T1, HCV genotype 2a-c NS3-NS4A protease (UniProt P26660); assay: Inhibition constant (Ki) determination, genotype 2a-c; type: biochemical; conditions: read-out: Ki HCV genotype 2a-c
T1 sequence (P26660 1031-1661): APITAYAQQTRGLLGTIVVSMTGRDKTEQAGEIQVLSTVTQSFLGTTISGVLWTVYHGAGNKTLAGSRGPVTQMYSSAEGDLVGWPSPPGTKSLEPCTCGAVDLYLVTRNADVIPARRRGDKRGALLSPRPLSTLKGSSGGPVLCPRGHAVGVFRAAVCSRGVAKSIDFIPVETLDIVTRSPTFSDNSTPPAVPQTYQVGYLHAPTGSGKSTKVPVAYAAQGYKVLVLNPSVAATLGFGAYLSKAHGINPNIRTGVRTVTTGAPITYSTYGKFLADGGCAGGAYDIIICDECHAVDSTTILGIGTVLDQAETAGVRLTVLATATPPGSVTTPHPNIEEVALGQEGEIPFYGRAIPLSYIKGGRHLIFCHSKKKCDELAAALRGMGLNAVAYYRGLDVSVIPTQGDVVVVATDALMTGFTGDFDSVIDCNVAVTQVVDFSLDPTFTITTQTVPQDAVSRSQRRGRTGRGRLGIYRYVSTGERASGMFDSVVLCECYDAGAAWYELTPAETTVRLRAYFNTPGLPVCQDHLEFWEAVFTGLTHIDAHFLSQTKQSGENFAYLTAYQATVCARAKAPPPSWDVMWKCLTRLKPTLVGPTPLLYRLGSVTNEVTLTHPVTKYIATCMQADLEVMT

[2] = target: T2, HCV genotype 2b NS3-NS4A protease (UniProt P26661); assay: Inhibition constant (Ki) determination, genotype 2b; type: biochemical; conditions: read-out: Ki HCV genotype 2b
T2 construct: fused on or other part: 28 extra N-terminal residues with a hexahistidine tag and an rTEV cleavage site
T2 sequence (P26661 1031-1661): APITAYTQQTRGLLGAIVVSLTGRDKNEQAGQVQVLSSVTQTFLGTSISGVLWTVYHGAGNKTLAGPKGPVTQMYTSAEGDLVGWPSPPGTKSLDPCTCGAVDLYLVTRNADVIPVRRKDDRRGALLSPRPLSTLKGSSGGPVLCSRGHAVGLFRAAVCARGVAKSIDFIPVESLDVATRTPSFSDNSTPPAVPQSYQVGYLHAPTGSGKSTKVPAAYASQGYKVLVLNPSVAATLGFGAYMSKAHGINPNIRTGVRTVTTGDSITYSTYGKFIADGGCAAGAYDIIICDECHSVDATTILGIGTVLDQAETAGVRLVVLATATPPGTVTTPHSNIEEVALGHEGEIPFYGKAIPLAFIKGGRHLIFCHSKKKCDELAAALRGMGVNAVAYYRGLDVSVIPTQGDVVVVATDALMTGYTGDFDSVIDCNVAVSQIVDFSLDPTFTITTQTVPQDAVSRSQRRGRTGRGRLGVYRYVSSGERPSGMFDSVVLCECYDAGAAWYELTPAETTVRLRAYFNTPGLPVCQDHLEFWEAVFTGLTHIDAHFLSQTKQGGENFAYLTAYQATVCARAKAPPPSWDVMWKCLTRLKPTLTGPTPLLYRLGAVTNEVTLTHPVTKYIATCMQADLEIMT

[3] = tested on: HCV replicon-containing, Huh-7-derived cell lines; conditions: human

COc1ccc2c(O[C@@H]3C[C@H]4C(=O)N[C@]5(C(=O)O)CC5/C=C\CCCCC[C@H](NC(=O)OC(C)(C)C)C(=O)N4C3)cc(-c3csc(NC(C)=O)n3)nc2c1 (some centres unmarked) [III]
inhibition of GBV-B replication (FIG. 7) (GBV-B): dose-dependent inhibition
reduction in the viral RNA levels (GBV-B; 10 μM, 7 days post infection, g.e./μg RNA): > 3 log

COc1ccc2c(O[C@@H]3C[C@H]4C(=O)N[C@]5(C(=O)O)CC5/C=C\CCCCC[C@H](NC(=O)OC5CCCC5)C(=O)N4C3)cc(-c3csc(NC(C)C)n3)nc2c1 (some centres unmarked) [IV]
Ki [1]: 86 nM
Ki [2]: 83 nM
Cytotoxicity (concentration at which not observed) [3]: higher than 1000 nM

From patent publication US20050159345A1 (Boehringer Ingelheim International GmbH, priority 2002, published 2005)
